Entries after “also recorded” stand apart in the source; their conditions may differ.
Legend:
SARS-CoV-2 Mpro = SARS-CoV-2 Mpro (Severe acute respiratory syndrome coronavirus 2, UniProt P0DTD1); test: biochemical; details: enzyme 1.5 μM, substrate 50 μM; for IC50 / IC50 (µM): FRET, 15 min preincubation at 37 °C; for Emax: read-out: Maximum inhibition (%), efficacy compared to negative control (vehicle, DMSO)
[1] = tested on: SARS-CoV-2 B.1 lineage isolate
[2] = tested on: SARS-CoV-2 B.1 lineage isolate; test: in vitro; details: human
in vitro = details: human
[3] = tested on: SARS-CoV-2 B.1 lineage isolate; test: microbe, parasite or virus in culture; details: Severe acute respiratory syndrome coronavirus 2, Calu-3, 24 h
[4] = Cytotoxicity by methylene blue viability assay; details: human
Calu-3 cells = test: Cytotoxicity by methylene blue viability assay; details: Calu-3 cells
SARS-CoV-2 = details: comparator values quoted in text; cited from earlier work

Row | SMILES | IC50 (SARS-CoV-2 Mpro) [µM] | Emax (SARS-CoV-2 Mpro; compounds 0.001 to 1000 μM) [%] | melting point [°C] | also measured
1 | COC(=O)[C@H](Cc1ccc(O)cc1)NC(=O)C[C@H](O)[C@@H](N)Cc1ccccc1.O=C(O)C(F)(F)F [Compound 9b] | > 1000 | 52 | 98 to 99 | –
2 | COC(=O)[C@H](Cc1ccccc1)NC(=O)C[C@H](OC(C)=O)[C@H](Cc1ccccc1)NC(=O)OC(C)(C)C [Compound 8e] | 0.606 | > 70 | 89 to 91 | IC50 (µM) (SARS-CoV-2 Mpro): sub-micromolar range; Inhibition of SARS-CoV-2 replication [1]: roughly 80%; selectivity ratio [2]: > 112; CC50 at 72 h (in vitro): > 200 µM; EC50 [3]: 1.79 ± 0.1 µM
3 | COC(=O)[C@@H](NC(=O)C[C@H](OC(C)=O)[C@H](Cc1ccccc1)NC(=O)OC(C)(C)C)C(C)C [Compound 8g] | > 1000 | 66 | – | –
4 | COC(=O)[C@H](CC(C)C)NC(=O)C[C@H](O)[C@H](Cc1ccccc1)NC(=O)OC(C)(C)C [Compound 7e] | – | < 50 | – | –
5 | COC(=O)N[C@H](C(=O)N[C@@H](Cc1ccccc1)[C@@H](O)CN(Cc1ccc(-c2ccccn2)cc1)NC(=O)[C@@H](NC(=O)OC)C(C)(C)C)C(C)(C)C [ATV, atazanavir, reference compound] | – | – | – | selectivity ratio [2]: > 131; EC50 [3]: 1.53 ± 0.3 µM; CC50 at 72 h [4]: > 200 µM
6 | COC(=O)[C@H](Cc1ccccc1)NC(=O)C[C@H](O)[C@H](Cc1ccccc1)NC(=O)OC(C)(C)C | – | – | 79 to 80 | –
7 | COC(=O)[C@H](Cc1ccc(OC(C)=O)cc1)NC(=O)C[C@H](OC(C)=O)[C@H](Cc1ccccc1)NC(=O)OC(C)(C)C [Compound 8b] | > 1000 | 65 | 88 to 89 | –
8 | COC(=O)[C@@H](NC(=O)C[C@H](O)[C@H](Cc1ccccc1)NC(=O)OC(C)(C)C)[C@H](C)O [Compound 7c] | – | < 50 | 124 to 125 | –
9 | CC(C)(C)OC(=O)N[C@@H](Cc1ccccc1)[C@@H](O)CC(=O)N[C@@H](Cc1ccccc1)C(=O)NN [Compound 10] | > 1000 | 61 | – | –
10 | COC(=O)[C@H](Cc1ccccc1)NC(=O)C[C@H](O)[C@@H](N)Cc1ccccc1 [Compound 9e] | > 1000 | 51 | – | –
11 | COC(=O)[C@@H](NC(=O)C[C@H](O)[C@@H](N)Cc1ccccc1)C(C)C.O=C(O)C(F)(F)F [Compound 9g] | 0.617 | > 70 | – | IC50 (µM) (SARS-CoV-2 Mpro): sub-micromolar range; Inhibition of SARS-CoV-2 replication [1]: roughly 80%; selectivity ratio [2]: > 132; EC50 [3]: 1.51 ± 0.2 µM; CC50 at 72 h [4]: > 200 µM; Cytotoxicity (in words) (Calu-3 cells): no cytotoxicity; also recorded: non-cytotoxic
12 | COC(=O)[C@@H]1CCCN1C(=O)C[C@H](OC(C)=O)[C@H](Cc1ccccc1)NC(=O)OC(C)(C)C | – | – | 90 to 92 | –
13 | COC(=O)[C@H](CC(C)C)NC(=O)C[C@H](OC(C)=O)[C@H](Cc1ccccc1)NC(=O)OC(C)(C)C [Compound 8d] | 0.391 | ≥ 60 | 94 to 95 | –
14 | CC(C)C(=O)OC[C@H]1O[C@@H](n2ccc(NO)nc2=O)[C@H](O)[C@@H]1O [molnupiravir] | – | – | – | EC50 (SARS-CoV-2): 1.97 µM
15 | COC(=O)[C@H](CO)NC(=O)C[C@H](O)[C@H](Cc1ccccc1)NC(=O)OC(C)(C)C [Compound 7a] | > 1000 | 70 | – | –
16 | COC(=O)[C@@H]1CCCN1C(=O)C[C@H](O)[C@@H](N)Cc1ccccc1 [Compound 9f] | > 1000 | 68 | – | –
17 | COC(=O)[C@H](CO)NC(=O)C[C@H](O)[C@@H](N)Cc1ccccc1.O=C(O)C(F)(F)F [Compound 9a] | > 1000 | 57 | 120 to 121 | –
18 | COC(=O)[C@H](CC(C)C)NC(=O)C[C@H](O)[C@@H](N)Cc1ccccc1.O=C(O)C(F)(F)F [Compound 9d] | 778 | 58 | 147 to 148 | –
19 | COC(=O)[C@@H](NC(=O)CC(O)C(Cc1ccccc1)NC(=O)OC(C)(C)C)C(C)C (some centres unmarked) [Compound 7h] | – | – | – | Maximum inhibition (%) (SARS-CoV-2 Mpro; efficacy compared to negative control (vehicle, DMSO), compounds 0.001 to 1000 μM): < 50%
20 | COC(=O)[C@@H](NC(=O)C[C@H](OC(C)=O)[C@H](Cc1ccccc1)NC(=O)OC(C)(C)C)[C@H](C)OC(C)=O [Compound 8c] | 2.45 | ≥ 60 | 54 to 55 | –
21 | COC(=O)[C@H](Cc1ccc(O)cc1)NC(=O)C[C@H](O)[C@H](Cc1ccccc1)NC(=O)OC(C)(C)C [Compound 7b] | > 1000 | 70 | 60 to 62 | –
22 | COC(=O)[C@H](COC(C)=O)NC(=O)C[C@H](OC(C)=O)[C@H](Cc1ccccc1)NC(=O)OC(C)(C)C [Compound 8a] | 1000 | 50 | 97 to 98 | –
23 | COC(=O)[C@@H](O)CNC(=O)C[C@H](O)[C@H](Cc1ccccc1)NC(=O)OC(C)(C)C [Compound 7d] | 0.924 | > 70 | 65 to 66 | IC50 (µM) (SARS-CoV-2 Mpro): sub-micromolar range; Inhibition of SARS-CoV-2 replication [1]: roughly 80%; selectivity ratio [2]: > 114; CC50 at 72 h (in vitro): > 200 µM; EC50 [3]: 1.76 ± 0.3 µM
